Experimental data published in article PMC5701060, “Inhibition of the inflammatory response to stress by targeting interaction between PKR and its cellular activator PACT” (Scientific Reports, 2017).

Target: T1, PKR/PACT (GST-PKR-Nter / His-PACT) (Homo sapiens, UniProt O75569+P19525)
T1 construct: gene EIF2AK2; PKR 1-265 (both DRBDs, no kinase domain) with N-terminal GST; full-length PACT with N-terminal His tag; E. coli
Assay: HTRF protein-protein interaction assay
Assay type: binding

T1 sequence (P19525 1-265): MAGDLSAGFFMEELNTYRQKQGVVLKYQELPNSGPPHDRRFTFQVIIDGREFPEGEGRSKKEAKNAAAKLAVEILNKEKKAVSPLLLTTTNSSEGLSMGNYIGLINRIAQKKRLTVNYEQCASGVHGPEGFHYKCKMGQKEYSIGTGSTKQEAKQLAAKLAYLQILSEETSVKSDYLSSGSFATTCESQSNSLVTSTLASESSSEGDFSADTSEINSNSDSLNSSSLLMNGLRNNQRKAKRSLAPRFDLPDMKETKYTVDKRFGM
T1 sequence (O75569 whole entry, the tested form may be a part): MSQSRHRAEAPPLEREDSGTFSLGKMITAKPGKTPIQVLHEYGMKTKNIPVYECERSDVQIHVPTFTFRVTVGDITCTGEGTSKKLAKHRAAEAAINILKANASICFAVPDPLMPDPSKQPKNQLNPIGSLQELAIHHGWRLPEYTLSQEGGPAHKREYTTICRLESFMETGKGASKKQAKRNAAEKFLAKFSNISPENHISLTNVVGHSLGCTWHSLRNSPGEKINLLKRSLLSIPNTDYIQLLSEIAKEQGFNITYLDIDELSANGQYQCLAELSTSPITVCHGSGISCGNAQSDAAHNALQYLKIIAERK

Structure (SMILES)	IC50
O=c1cc(-c2ccc(O)c(O)c2)oc2cc(O)cc(O)c12 [luteolin]	50 µM
O=c1c(O)c(-c2cc(O)c(O)c(O)c2)oc2cc(O)cc(O)c12 [myricetin]	0.6 µM
O=c1c(O)c(-c2ccc(O)c(O)c2)oc2cc(O)cc(O)c12 [quercetin]	2 µM
